# Results from EP4631938A1, “NITROGEN-CONTAINING HETEROCYCLE WITH SEROTONIN RECEPTOR-BINDING ACTIVITY AND CARBOCYCLIC DERIVATIVE” (Shionogi & Co., Ltd, priority 2022, dated 2024).
# Like-named read-outs stand apart in the source and are kept apart here.
# How the values were obtained:
# [1] = molecular target: T1, human recombinant 5-HT2A receptor (Homo sapiens, UniProt P28223); experiment: Test Example 1-2: 5-HT2A receptor binding inhibition test ([3H]-Ketanserin; non-specific ligand Ketanserin)
# T1 construct: expressed in transfected cells; host or cells: Jump-In HEK cells (membrane preparation)
# In short: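 Membranes expressing the receptor were incubated with [3H]-ketanserin and compound for 1.5 h at 25 °C, then filtered onto plates presoaked in 50 mmol/L Tris-HCl pH 7.4 and scintillation-counted. Non-specific binding was defined with 500 µmol/L unlabeled ketanserin. Ki was taken from dose-response curves, with Kd set for each membrane lot by Scatchard analysis.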
# [2] = molecular target: T2, human recombinant 5-HT2C receptor (Homo sapiens, UniProt P28335); experiment: Test Example 2-2: 5-HT2C receptor binding inhibition test ([3H]-Mesulergine; non-specific ligand Ketanserin); conditions: non-specific binding with 500 µmol/L Ketanserin, 37°C, 2 hours
# T2 construct: expressed in transfected cells; host or cells: Jump-In HEK cells (membrane preparation)
# T2 sequence (P28335 33-458): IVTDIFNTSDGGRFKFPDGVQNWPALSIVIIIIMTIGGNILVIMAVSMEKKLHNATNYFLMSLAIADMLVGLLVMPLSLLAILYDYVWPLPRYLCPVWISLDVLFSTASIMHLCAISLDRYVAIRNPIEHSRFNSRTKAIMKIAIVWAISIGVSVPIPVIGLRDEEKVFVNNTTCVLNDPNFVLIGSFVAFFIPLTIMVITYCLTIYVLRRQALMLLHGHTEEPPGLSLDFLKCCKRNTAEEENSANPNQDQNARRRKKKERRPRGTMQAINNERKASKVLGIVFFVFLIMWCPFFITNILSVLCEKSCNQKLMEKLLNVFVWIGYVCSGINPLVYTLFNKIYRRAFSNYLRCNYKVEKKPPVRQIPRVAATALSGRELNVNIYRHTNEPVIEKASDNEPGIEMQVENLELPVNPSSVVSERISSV
# Experimental: The Kd value is calculated when the lot of the cell membrane is changed. 1 mmol/L non-specific binding calculating compound dissolved in DMSO or DMSO is previously dispensed to the microplate by 0.5 µL, and the cell membrane is diluted with an Assay buffer. The radioactive ligand solution is diluted step by step, and counts are checked with a liquid scintillator. The Assay buffer containing diluted cell membranes is dispensed by 50 µL/well into the microplate. The radioactive ligand solution is then dispensed by 50 µL/well into the microplate and the plate is sealed. The microplate is allowed to stand at 37°C for 2 hours. During this time, 50 mmol/L Tris-HCl (pH 7.4) is dispensed by 50 µL/well into the UniFilter plate and allowed to stand at 4°C for 1 hour or longer. Thereafter, filtration is performed with a Cell Harvester (PerkinElmer). The radioactive ligand solution is dispensed by 10 µL/well into empty wells of the UniFilter plate. After drying the UniFilter plate at room temperature, MicroScinti20 is dispensed by 50 µL/well into the UniFilter plate, and the plate is sealed. UniFilter plate is allowed to stand at room temperature overnight. The radioactivity of [^3H]-Mesulergine bound to the 5-HT2C receptor is measured using Microbeta2 (PerkinElmer) at a measurement time of 1 min/well. The Saturation curve is drawn from the measured value, and the Kd value is calculated from the slope of the Scatchard Plot.
# A compound solution dissolved in DMSO is dispensed to a microplate by 0.5 µL, and a cell membrane and a hot ligand are each diluted with an Assay buffer. The Assay buffer containing diluted cell membrane is then dispensed by 50 µL/well into the microplate. The radioactive ligand solution is then dispensed by 50 µL/well into the microplate and the plate is sealed. The microplate is then allowed to stand at 37°C for 2 hours. During this time, 50 mmol/L Tris-HCl (pH 7.4) is dispensed by 50 µL/well into the UniFilter plate and allowed to stand at 4°C for 1 hour or longer. Thereafter, filtration is performed with a Cell Harvester (PerkinElmer). After drying the UniFilter plate at room temperature, MicroScinti20 is dispensed by 50 µL/well into the UniFilter plate, and the plate is sealed. UniFilter plate is allowed to stand at room temperature overnight. The radioactivity of [^3H]-Mesulergine bound to the 5-HT2C receptor is measured using Microbeta2 (PerkinElmer) at a measurement time of 1 min/well. Non-specific binding is calculated from the radioactivity of [^3H]-Mesulergine in the presence of 500 µmol/L Ketanserin of unlabeled ligand, and total binding is calculated from the radioactivity of [^3H]-Mesulergine in the absence of the compound of the present invention (Vehicle). Finally, the Ki value is calculated from the dose-response curve.
# (The binding activity of the compound according to the present invention is calculated from the following binding inhibition rate (%).) Inhibition rate (%) = [1−(c−a)/(b−a)] × 100 [formula] • a; average cpm of non-specific binding • b; average cpm of total binding • c; cpm in the presence of the test compound
# The compounds of the present invention were tested essentially as described above.
# [3] = [3H]-Ketanserin, non-specific binding with 500 µmol/L Ketanserin, room temperature (25°C), 1.5 hours, read-out: h 5-HT2A Ki
# T1 sequence (P28223 whole entry): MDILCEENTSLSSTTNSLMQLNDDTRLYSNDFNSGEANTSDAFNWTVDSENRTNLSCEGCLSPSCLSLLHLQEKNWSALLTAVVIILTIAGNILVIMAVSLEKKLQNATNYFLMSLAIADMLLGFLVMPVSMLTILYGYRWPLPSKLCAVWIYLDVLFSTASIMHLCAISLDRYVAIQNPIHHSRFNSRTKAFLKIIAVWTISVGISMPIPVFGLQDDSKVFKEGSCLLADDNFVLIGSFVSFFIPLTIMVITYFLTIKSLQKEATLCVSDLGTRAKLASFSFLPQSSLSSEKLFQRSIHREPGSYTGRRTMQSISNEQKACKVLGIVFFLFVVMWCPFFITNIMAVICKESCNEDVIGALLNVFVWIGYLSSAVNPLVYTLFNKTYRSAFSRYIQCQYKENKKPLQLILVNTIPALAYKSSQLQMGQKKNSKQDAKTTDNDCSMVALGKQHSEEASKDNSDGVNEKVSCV
SMILES,"Ki [1, 3] [nM]",Ki [2] [nM],Ki [1] [nM]
Cn1ncc(Cl)c1-c1cc(Nc2ncc(C(F)(F)F)cc2F)ncc1OCCO [Compound I-115],0.265,0.818,–
Cn1ncc(Br)c1-c1cc(Nc2nc(C(F)(F)F)cs2)ccc1OCCO [Compound I-036],0.344,1.92,–
Cn1ncc(Br)c1-c1cc(Nc2ncc(Cl)s2)ccc1OCCO [Compound I-040],0.175,1.16,–
Cc1cccc(F)c1-c1cc(Nc2ncc(C(F)(F)F)cc2F)ccc1OCCO [Compound I-020],–,5.38,1.12
Cc1cc(C)c(-c2cc(Nc3ncc(C(F)(F)F)cc3F)ccc2OCCO)c(C)c1 [Compound I-021],0.722,4.1,–
Cn1ncc(Br)c1-c1cc(Nc2nc3ccccc3n2C)ccc1OCCO [Compound I-042],0.194,8.35,–
Cn1ncc(C#N)c1-c1cc(Nc2ncc(C(F)(F)F)cc2F)ncc1OCCO [Compound I-072],0.412,4.64,–
Cn1cnc(C#N)c1-c1cc(Nc2ncc(C(F)(F)F)cc2F)ccc1OCCO [I-065],–,5.02,0.15
COc1ccc2nc(Nc3ccc(OCCO)c(-c4c(Br)cnn4C)c3)sc2c1 [Compound I-085],0.192,0.55,–
Cn1ncc(Br)c1-c1cc(Nc2ncc(Br)cc2F)ccc1OCCO [Compound I-043],0.188,0.165,–
OCCOc1ccc(Nc2ncc(C(F)(F)F)cc2F)cc1-c1c(Br)cnn1C1CC1 [Compound I-067],0.403,0.196,–
Cn1ncc(C(F)(F)F)c1-c1cc(Nc2ncc(C(F)(F)F)cc2F)ccc1OCCO [Compound I-052],0.389,0.368,–
Cc1nnn(C)c1-c1cc(Nc2ncc(C(F)(F)F)cc2F)ccc1OCCO [Compound I-033],0.376,3.43,–
Cn1ncc(Br)c1-c1cc(Nc2ccc(C3CC3)cn2)cnc1OCCO [Compound I-128],0.258,0.452,–
Cc1n[nH]c(C)c1-c1cc(Nc2ncc(C(F)(F)F)cc2F)ccc1OCCO [Compound I-023],0.246,3.62,–
Cn1ncc(Br)c1-c1cc(Nc2nc3cc(F)ccc3n2C)ccc1OCCO [Compound I-101],0.497,3.11,–
Cn1ncc(Br)c1-c1cc(Nc2nc3c(Cl)cccc3s2)ccc1OCCO [Compound I-071],0.379,1.96,–
Cc1ncnc(C)c1-c1cc(Nc2ncc(C(F)(F)F)cc2F)cnc1OCCO [Compound I-134],0.621,13.2,–
Cn1ncc(Br)c1-c1cc(Nc2ccc(C(F)(F)F)cn2)cnc1OCCO [Compound I-081],0.202,0.457,–
Cn1ncc(Br)c1-c1cc(Nc2ncc(Cl)cc2F)ccc1OCCO [Compound I-017],0.266,0.415,–
Cc1nn(C)c(C)c1-c1cc(Nc2ncc(C(F)(F)F)cc2F)ccc1OCCO [Compound I-022],0.428,48.4,–
Cn1ncc(Br)c1-c1cc(Nc2nc3ccc(F)cc3n2C)ccc1OCCO [Compound I-092],0.274,2.76,–
Cn1ncc(Br)c1-c1cc(Nc2nccn3c(Br)cnc23)ccc1OCCO [Compound I-114],1.56,4.68,–
Cc1ccncc1-c1cc(Nc2ncc(C(F)(F)F)cc2F)ccc1OCCO [Compound I-024],0.607,7.35,–
Cn1ncc(Br)c1-c1cc(Nc2ncc(-c3ccccc3)s2)ccc1OCCO [Compound I-039],0.319,0.245,–

SMILES,"Ki [1, 3] [nM]",Ki [2] [nM],Ki [1] [nM]
Cn1ncc(Br)c1-c1cc(Nc2ncc(C(F)(F)F)cn2)ncc1OCCO [Compound I-159],0.295,1.88,–
Cc1nc(C)c(-c2cc(Nc3ncc(Cl)cc3F)ccc2OCCO)c(C)n1 [Compound I-098],0.559,3.18,–
Cc1cnn(C)c1-c1cc(Nc2ccc(C(F)(F)F)cn2)ccc1OCCO [Compound I-075],0.149,0.939,–
Cn1ncc(Br)c1-c1cc(Nc2ccc(OC(F)F)cn2)ccc1OCCO [Compound I-060],0.158,0.184,–
Cn1ncc(Br)c1-c1cc(Nc2ncc(F)cc2F)ncc1OCCO [Compound I-089],0.412,3,–
Cn1ncc(C#N)c1-c1cc(Nc2ncc(C(F)(F)F)cc2F)ccc1OCCO [I-031],–,1.6,0.239
Cn1ncc(F)c1-c1cc(Nc2ncc(Cl)cc2F)ccc1OCCO [Compound I-086],0.205,8.84,–
Cc1noc(C)c1-c1cc(Nc2ncc(C(F)(F)F)cc2F)c(F)cc1OCCO [Compound I-147],0.259,4.75,–
COC(=O)c1cnc(Nc2ccc(OCCO)c(-c3c(Br)cnn3C)c2)c(F)c1 [Compound I-046],0.318,1.33,–
Cn1ncc(Cl)c1-c1cc(Nc2ncc(Cl)cc2F)cnc1OCCO [Compound I-143],0.259,0.274,–
Cc1ccc(-c2cc(Nc3ncc(C(F)(F)F)cc3F)ccc2OCCO)c(C)n1 [Compound I-025],0.25,3.7,–
Cn1ncc(Br)c1-c1cc(Nc2ncc(Cl)cc2F)c(F)cc1OCCO [Compound I-152],0.354,0.52,–
Cn1ncc(Br)c1-c1cc(Nc2ncc(C3CC3)cn2)ccc1OCCO [Compound I-120],0.903,3.86,–
Cn1ncc(Br)c1-c1cc(Nc2ncc(C3CC3)cn2)cnc1OCCO [Compound I-133],0.322,2.53,–
Cc1cnn(C)c1-c1cc(Nc2ncc(Cl)cc2F)ncc1OCCO [Compound I-088],0.267,8.31,–
Cn1ncc(Br)c1-c1cc(Nc2ccc(C(F)F)cn2)ccc1OCCO [Compound I-091],0.197,8.99,–
Cn1ncc(Cl)c1-c1cc(Nc2ncc(Cl)cc2F)ncc1OCCO [Compound I-156],0.315,1.78,–
Cn1ncc(Cl)c1-c1cc(Nc2ncc(C(F)(F)F)cc2F)ccc1OCCO [Compound I-015],0.195,0.248,–
Cc1nc(C)c(-c2cc(Nc3ncc(C(F)(F)F)cc3F)cnc2OCCO)c(C)n1 [Compound I-135],1.24,7.13,–
Cn1ncc(Br)c1-c1cc(Nc2ncc(Cl)s2)cnc1OCCO [Compound I-130],0.256,3.26,–
Cn1ncc(Br)c1-c1cc(Nc2ncc(Cl)c3ccccc23)ccc1OCCO [Compound I-113],0.295,3.09,–
Cn1ncc(C#N)c1-c1cc(Nc2ncc(C(F)(F)F)cc2F)cc(F)c1OCCO [Compound I-110],0.375,17.3,–
Cn1ncc(Br)c1-c1cc(Nc2ncc(Cl)cn2)cnc1OCCO [Compound I-132],0.236,5,–
Cn1ncc(Br)c1-c1cc(Nc2nc3ccccc3o2)ccc1OCCO [Compound I-041],0.155,8.83,–
Cn1ncc(Br)c1-c1cc(Nc2ncc(C3CC3)s2)cnc1OCCO [Compound I-129],0.237,0.959,–
